Data: PMC10095301, “To Target or Not to Target Schistosoma mansoni Cyclic Nucleotide Phosphodiesterase 4A?” (International Journal of Molecular Sciences, 2023)
Several values for one entry are separate records, joined by “and”; a condition that tells them apart may be missing. Equal values may be shown once. Read-outs that look alike come from different tables or passages of the source. Marks after values point to notes of the source that are not given here.

What was measured:
SmPDE4A_CD = SmPDE4A_CD (Schistosoma mansoni, UniProt A0ACM8RGL1); experiment: biochemical; conditions: for inhibition at 10 µM: read-out: SmPDE4A_CD Inhibition at 10 µM (%)
Experimental: (§1) Enzyme velocity was plotted against substrate concentration, and Km values were determined using GraphPad Prism software version 8, analyzing the Michaelis–Menten kinetics of the enzyme.
(§2) Inhibitors were initially tested at 10 µM (triplicate measurements/assay, n = 3). In follow-up experiments, dose-response curves were made in the range 100 µM–10 pM (triplicate measurements/assay, n = 3). […] The reaction was terminated by the addition of 5 µL Lonza Stop Buffer supplemented with 10 µM pan-PDE4 inhibitor NPD-0001. Subsequently, 5 µL of Lonza Detection reagent (diluted to 80% with reaction buffer) was added, and the reaction was incubated for 10 min at 300 rpm. Luminescence was read with a Victor3 luminometer using a 0.1 s/well program. […] The Cheng-Prussoff equation, embedded in the GraphPad Prism software, was used to convert IC50 values to pKi values.

SmPDE4A_FL = SmPDE4A_FL (Schistosoma mansoni, UniProt A0ACM8RGL1); experiment: biochemical; conditions: read-out: SmPDE4A_FL inhibition at 10 µM
Experimental: as §1, §2

S. mansoni [1] = experiment: In vitro anti-S. mansoni assay: adult worm killing; format: cell-based, Schistosoma mansoni; conditions: for %Worm Killing (Female) / %Worm Killing (Male): day 5
Experimental: Infected Syrian golden hamsters (Mesocrietus auratus) bred and maintained at the Schistosome Biology Supply Center (SBSC) of Theodor Bilharz Research Institute (TBRI), Giza, Egypt, were used. Animals were housed under controlled biological conditions. Animal experiments were conducted in accordance with the Guide for Care and Use of Laboratory Animals and were approved by the Institutional Review Board (IRB) of TBRI. Seven weeks post-infection, hamsters were anesthetized using pentobarbital in a dose of 200 mg/kg body weight and 2 hamsters were sacrificed to obtain the required number of worms. The animals were then perfused using a normal saline solution (0.9% NaCl), and worms were collected. Six to 8 worms per well were placed in a 12-well tissue culture plate, taking care to guarantee 1 to 2 worm pairs/well and fresh RPMI-1640 medium (plus glutamine, 20% newborn calf serum and antibiotics [streptomycin, penicillin and gentamicin]), containing the indicated concentration of the test compound, was added. Worms were incubated overnight in a CO2 incubator at 37 °C. On the 2nd day, worms were examined by microscopy, washed 3 times with normal saline, a fresh medium was added, and the incubation was continued. On the 3rd day, worm motility was observed, and on the 4th day, the medium was again changed. On day 5 (end of the observation period), worms were microscopically examined for their motility and appearance. Each concentration was tested in duplicate wells, and the final recording of percent worm mortality was determined as the number of dead worms [contracted and opaque] divided by the total number of worms ×100).
(§3) For these experiments, roflumilast and NPD-0001 were freshly prepared in different concentrations (100 µM, 50 µM, 25 µM 10 µM and 5 µM) in RPMI-1640 medium and tested in 12-well tissue culture plates for S. mansoni survival and ovipositing capacity. To assess the effects of roflumilast and NPD-0001 on egg production in vitro, we used 12-well tissue culture plates containing 6–8 worms, including at least 1 or 2 worm couples and fresh RPMI-1640 medium containing the indicated concentration of the test compound. Worms were incubated overnight in a CO2 incubator at 37 °C. On the 2nd day, worms were washed 3 times with normal saline, fresh medium was added, and the incubation was continued. Each concentration was tested in duplicate wells, and on the 4th day, eggs were counted and discarded, and the medium was changed. On day 5 (the end of the observation period), newly deposited eggs were counted. The final egg number is the total count of days 4 and 5 for each concentration tested. Statistical analysis was done with Student’s unpaired, 2-tailed t-test.

[2] = Cytotoxicity on MRC-5 cells; format: cell-based; conditions: human, MRC-5SV40 lung fibroblasts, read-out: MRC-5 pIC50 (converted)
Description: Table 4 Effect of SmPDE4A inhibitors on S. mansoni survival and oviposition. | column: MRC-5 pIC50

S. mansoni [3] = experiment: In vitro anti-S. mansoni assay: oviposition (egg count); format: cell-based, Schistosoma mansoni; conditions: eggs of days 4 and 5
Experimental: as §3

S. mansoni [4] = tested on: S. mansoni; design: method as in PMID 31711973; conditions: data from Botros et al. and this study, cited from earlier work
S. mansoni [5] = tested on: S. mansoni; design: method as in PMID 31711973; conditions: data from Botros et al. and this study, cited from earlier work; remark: listed apart in the source
SmPDE4A = molecular target: SmPDE4A; design: method as in PMID 28704396; conditions: estimated value; cited from earlier work
[6] = SmPDE4A_CD pKi, mean ± SEM, n ≥ 3, cAMP at 2 × Km (6 µM), Cheng-Prusoff
[7] = read-out: SmPDE4A_CD pKi (converted)

For `COc1ccc(NC(=O)c2ccc(OC(F)F)c(OCC3CC3)c2)cc1Cl` [NPD-3000], the inhibition at 10 µM (SmPDE4A_CD; 10 µM compound) was 15%.

In the case of `O=C(Nc1c(Cl)c[n+]([O-])cc1Cl)c1ccc(OC(F)F)c(OCC2CC2)c1` [NPD-2980, roflumilast N-oxide], the Ki (SmPDE4A_CD; [6]) is reported as 63.1 nM.

`O=C(Nc1cccc(Cl)c1)c1ccc(OC(F)F)c(OCC2CC2)c1` [NPD-3075] showed an inhibition at 10 µM (SmPDE4A_CD; 10 µM compound) of 4%.

With `O=C(Nc1ccncc1Cl)c1ccc(OC(F)F)c(OCC2CC2)c1` [NPD-1204] the Ki (SmPDE4A_CD; [7]) was 251 nM.

For `COc1ccc(C2=NN(C3CCN(C(=O)CN4C(=O)CCC4=O)CC3)C(=O)C3CC=CCC23)cc1OC` (stereo not drawn) [NPD-0007], the inhibition at 10 µM (SmPDE4A_CD; 10 µM compound) was > 50%, the Ki (SmPDE4A_CD; [7]) was 501 nM and the IC50 (SmPDE4A_CD; representative dose-response curves, Figure 4B, read-out: pIC50 inhibition of enzymatic activity of SmPDE4A_CD (converted)) was 3980 nM. For the same molecule, the inhibition at 10 µM (SmPDE4A_FL; 10 µM compound, toolbox screen) was > 50%.

Molecule `COc1ccc(C(=O)Nc2c(Cl)cncc2Cl)cc1OC` [NPD-0446] has a Ki (SmPDE4A_CD; [7]) of 3980 nM.

In the case of `COc1ccc(C2=NN(C3CCCCCC3)C(=O)[C@H]3CC=CC[C@@H]23)cc1OCCCCOc1ccc(-c2nnn[nH]2)cc1` [NPD-0001], the “%Worm Killing (Female)” value (S. mansoni [1]; 5 µM) is reported as 0%, the “%Worm Killing (Male)” value (S. mansoni [1]; 5 µM) is reported as 0% and the “%Worm Killing (Female)” value (S. mansoni [1]; 10 µM) is reported as 0%. For the same molecule, the “%Worm Killing (Male)” value (S. mansoni [1]; 10 µM) was 0%, the “%Worm Killing (Female)” value (S. mansoni [1]; 25 µM) was 0% and the “%Worm Killing (Male)” value (S. mansoni [1]; 25 µM) was 0%. For the same molecule, the “%Worm Killing (Female)” value (S. mansoni [1]; 50 µM) was 0%, the “%Worm Killing (Male)” value (S. mansoni [1]; 50 µM) was 0% and the “%Worm Killing (Male)” value (S. mansoni [1]; 100 µM) was 63%. For the same molecule, the IC50 (SmPDE4A_CD) was 1580 nM, the Ki (SmPDE4A_CD; [6]) was 126 nM and the inhibition at 10 µM (SmPDE4A_CD) was > 50%. The inhibition at 10 µM (SmPDE4A_FL) was > 50%, the IC50 [2] was 7940 nM and the “% Oviposition Reduction” value (S. mansoni [3]; 5 µM) was 0%. For the same molecule, the “% Oviposition Reduction” value (S. mansoni [3]; 10 µM) was 0%, the “% Oviposition Reduction” value (S. mansoni [3]; 25 µM) was 13% and the “% Oviposition Reduction” value (S. mansoni [3]; 50 µM) was 23%. The “% Oviposition Reduction” value (S. mansoni [3]; 100 µM) was 100 * %.

With `O=C(Nc1c(Cl)cncc1Cl)c1ccc(Cl)c(OCC2CC2)c1` [NPD-3096] the Ki (SmPDE4A_CD; [7]) was 794 nM.

Molecule `O=C(Nc1ccncc1)c1ccc(OC(F)F)c(OCC2CC2)c1` [NPD-3076] has an inhibition at 10 µM (SmPDE4A_CD; 10 µM compound) of 46%.

`COc1ccc(C(=O)Nc2c(Cl)cncc2Cl)cc1Cl` [NPD-1180] gave an inhibition at 10 µM (SmPDE4A_CD; 10 µM compound) of 9%.

For `O=C(C1CCCCC1)N1CC(=O)N2CCc3ccccc3C2C1` (stereo not drawn) [praziquantel], the worm killing (S. mansoni [1]; 5 µM (lowest concentration tested), sex not specified) was 100% and the “% Oviposition Reduction” value (S. mansoni [3]; 5 µM) was 100%.

For `O=C(Nc1c(Cl)cncc1Cl)c1ccc(OC(F)F)c(OCC2CC2)c1` [roflumilast], the “%Worm Killing (Female)” value (S. mansoni [4]; 5 µM) is listed as 0%, the “%Worm Killing (Male)” value (S. mansoni [4]; 5 µM) is listed as 0% and the “%Worm Killing (Female)” value (S. mansoni [4]; 10 µM) is listed as 0%. The “%Worm Killing (Male)” value (S. mansoni [4]; 10 µM) was 0%, the “%Worm Killing (Female)” value (S. mansoni [4]; 25 µM) was 0% and the “%Worm Killing (Male)” value (S. mansoni [4]; 25 µM) was 0%. The “%Worm Killing (Female)” value (S. mansoni [4]; 50 µM) was 0%, the “%Worm Killing (Male)” value (S. mansoni [4]; 50 µM) was 0% and the “%Worm Killing (Female)” value (S. mansoni [4]; 100 µM) was 0%. The “%Worm Killing (Male)” value (S. mansoni [4]; 100 µM) was 0%, the “% Oviposition Reduction” value (S. mansoni [5]; 5 µM) was 35 * % and the “% Oviposition Reduction” value (S. mansoni [5]; 10 µM) was 39 * %. The “% Oviposition Reduction” value (S. mansoni [5]; 25 µM) was 42 * %, the “% Oviposition Reduction” value (S. mansoni [5]; 50 µM) was 49 * % and the “% Oviposition Reduction” value (S. mansoni [5]; 100 µM) was 52 * %. For the same molecule, the IC50 (SmPDE4A_CD) was 631 nM, the Ki (SmPDE4A_CD; [6]) was 79.4 nM and the inhibition at 10 µM (SmPDE4A_CD) was > 50%. For the same molecule, the inhibition at 10 µM (SmPDE4A_FL) was > 50%, the IC50 [2] was > 63100 nM and the “SmPDE4A pKi (estimated)” value (SmPDE4A) was 7.8.

In the case of `O=C(Nc1ccccc1Cl)c1ccc(OC(F)F)c(OCC2CC2)c1` [NPD-3080], the Ki (SmPDE4A_CD; [7]) is reported as 2000 nM and the “reduction in SmPDE4A inhibitory potency (fold)” value (SmPDE4A_CD; relative to NPD-1204) is reported as 10 fold.

With `O=C(Nc1cnccc1Cl)c1ccc(OC(F)F)c(OCC2CC2)c1` [NPD-1205] the inhibition at 10 µM (SmPDE4A_CD; 10 µM compound) was 21% and the “reduction in SmPDE4A inhibitory potency (fold)” value (SmPDE4A_CD; relative to roflumilast) was “three-fold reduction in potency”.

Molecule `COc1ccc(C(=O)Nc2c(Cl)cncc2Cl)cc1OCc1ccccc1` [NPD-0546] has an inhibition at 10 µM (SmPDE4A_CD; 10 µM compound) of 8%.

For `COc1ccc(C(=O)Nc2c(Cl)cncc2Cl)cc1OC1CCCC1` [piclamilast], the IC50 (SmPDE4A_CD) was 3160 nM, the Ki (SmPDE4A_CD; [6]) was 316 nM and 63.1 nM and the inhibition at 10 µM (SmPDE4A_CD) was > 50%. The inhibition at 10 µM (SmPDE4A_FL) was > 50%.

For `COc1ccc(C(=O)Nc2c(Cl)cncc2Cl)cc1OCC1CC1` [NPD-3094], the Ki (SmPDE4A_CD; [7]) was 398 nM.

In the case of `COc1ccc(C(=O)Nc2c(Cl)cncc2Cl)cc1` [NPD-0548], the inhibition at 10 µM (SmPDE4A_CD; 10 µM compound) is reported as 16%.

With `O=C(Nc1c(Cl)cncc1Cl)c1ccc(F)c(OCC2CC2)c1` [NPD-3093] the Ki (SmPDE4A_CD; [7]) was 2510 nM.
